Reference: patent publication US20080166323A1, “Activators of Hexosamine Biosynthesis as Inhibitors of Injury Induced by Ischemia or Hermorrhagic Shock” (UAB RESEARCH FOUNDATION, priority 2004, published 2008)

Key:
[1] = test system: rat model of trauma-hemorrhage and resuscitation; experiment: trauma/hemorrhage mimicking the field, Example 2 (glucosamine only during resuscitation); format: in vivo
Description: The following experiments were conducted using a model of soft tissue trauma-hemorrhage (T-H) as described in Ba, et al., Crit. Care Med (2000) 28(8):2837-2842; Chaudry, et al., Can J Physiol Pharmacol (1975) 53(5):859-865; Ma, et al., Am J Physiol Gastrointest Liver Physiol (2003) 284(1):G107-G115; and Harkema and Chaudry, Crit. Care Med (1992) 20(2):263-275. Male rats were fasted for 16 h and divided into three groups: (1) sham (trauma only); (2) T-H (trauma with subsequent hemorrhage and resuscitation); and (3) G-T-H (trauma with subsequent hemorrhage and resuscitation in the presence of glucosamine). All groups underwent a 5 cm ventral midline laparotomy to induce soft-tissue trauma and were cannulated in both femoral arteries and the right femoral vein. The T-H and G-T-H groups received an infusion of 3 mls over 30 minutes of Ringer's lactate (RL) containing, in the G-T-H group only, 10 mM glucosamine. These two groups were then bled to a mean arterial pressure of 40 mm Hg within 10 minutes and maintained at that pressure for 80 minutes. The T-H group was then infused with 1 ml RL over 10 minutes, while in the G-T-H group the infusate contained an iso-osmotic solution of 75 mM glucosamine (pH 7.4) in 50% RL. The two groups were then resuscitated with four times the maximum hemorrhage volume over a period of 60 minutes with RL (T-H) or RL containing 10 mM glucosamine (G-T-H). Sham-operated animals underwent the same surgical procedure but were neither bled nor resuscitated. Two hours post-resuscitation, a catheter was inserted into the left ventricle via the right carotid artery. Organ blood flows were determined using radioactive microspheres. Cardiac function and blood parameters were also assessed. The data for these experiments are shown in Tables 1 and 2 (values are mean ±standard error of the mean).
A second experiment was performed in order to mimic a trauma/hemorrhage in the field. There were no treatments in any of the three groups prior to trauma/hemorrhage. The T-H and G-T-H groups were partially resuscitated identically with two times the maximum hemorrhage volume over a period of 30 minutes. In the G-T-H group, a 1 ml bolus containing an iso-osmotic solution of 75 mM glucosamine (pH 7.4) in 50% RL was administered, while in the T-H group this bolus contained only RL. This was then followed with two times the maximum hemorrhage volume over a period of 30 minutes with RL (T-H) or RL containing 10 mM glucosamine (G-T-H). Sham-operated animals underwent the same surgical procedure but were neither bled nor resuscitated. The data for this experiment are shown in Tables 3 and 4 (values are mean ±standard error of the mean).

isolated rat hearts = experiment: isolated heart model of ischemia and reperfusion; conditions: 5 mM, added 10 minutes prior to ischemia and in reperfusion buffer; 10 min global ischemia, 15 min reperfusion; n=3
Description: To determine whether glucosamine treatment was protective in an isolated heart model of ischemia and reperfusion, isolated rat hearts (n=3) were assessed for protection against damage utilizing an ischemia/reperfusion protocol that included 10 minutes of global ischemia followed by 15 minutes of reperfusion with oxygenated buffer. In the experimental group, 5 mM glucosamine was added to the buffer 10 minutes prior to the onset of ischemia and was also included in the reperfusion buffer.

O-GlcNAc on proteins = experiment: CTD110 immunoblot of O-GlcNAc-containing proteins in isolated heart extracts; conditions: ten-minute perfusion, 5 mM, isolated hearts
Description: FIG. 8 is a photograph of a CTD110 immunoblot performed on extracts from isolated hearts following a 10-minute perfusion with buffer (control) or buffer containing 5 mM glucosamine (GlcNH2). The differences in the O-GlcNAc-containing protein pattern between the control and the GlcNH2 treated hearts are indicated by arrows.
In the experiments above with isolated hearts, glucosamine was protective after only a ten minute pre-incubation. While not wishing to be bound by theory, the mechanism believed to be responsible for the protection is an increase in concentration of an intracellular metabolite of the HBP, which results in an increase in protein-associated O-GlcNAc. […] Increases at ten minutes were 47%. With respect to the second point, experiments were performed in which a monoclonal antibody specific for O-GlcNAc on proteins (CTD110) (Corner, et al, Anal Biochem (2001) 293(2):169-177) was used in an immunoblotting protocol. The specificity of this antibody for O-GlcNAc-containing epitopes is verified in each experiment by the inclusion of 10 mM GlcNAc along with the CTD110 antibody on parallel samples. These samples show no staining (data not shown). CTD110 immunoblots were performed on extracts from isolated hearts following a ten-minute perfusion with buffer or buffer containing 5 mM glucosamine (FIG. 8). […]

[2] = rat, G-T-H (n = 8), 2 h after T-H and resuscitation, Example 2, mean ± SEM
[3] = rat, G-T-H (n = 8), 2 h after T-H, glucosamine only during resuscitation, mean ± SEM

N[C@H]1C(O)O[C@H](CO)[C@@H](O)[C@@H]1O (stereo partly drawn) [glucosamine]
protection in trauma/hemorrhage ([1]; glucosamine only during resuscitation, Example 2): remarkably protective | Regional Blood Flow: Brain [1, 2]: 151.58 ± 13.97 ml/min/100 g tissue | Regional Blood Flow: Cardiac [1, 2]: 933.65 ± 114.73 ml/min/100 g tissue | Regional Blood Flow: Cecum [1, 2]: 86.39 ± 10.70 ml/min/100 g tissue | Regional Blood Flow: Gastric [1, 2]: 71.08 ± 6.84 ml/min/100 g tissue | Regional Blood Flow: Hepatic Artery [1, 2]: 45.10 ± 6.58 ml/min/100 g tissue | Regional Blood Flow: Large Intestine [1, 2]: 96.83 ± 6.90 ml/min/100 g tissue | Regional Blood Flow: Lung [1, 2]: 29.71 ± 4.87 ml/min/100 g tissue | Regional Blood Flow: Mesenteric [1, 2]: 43.12 ± 9.56 ml/min/100 g tissue | Regional Blood Flow: Muscle [1, 2]: 32.97 ± 5.00 ml/min/100 g tissue | Regional Blood Flow: Pancreatic [1, 2]: 52.08 ± 5.53 ml/min/100 g tissue | Regional Blood Flow: Portal Vein [1, 2]: 211.57 ± 23.79 ml/min/100 g tissue | Regional Blood Flow: Renal [1, 2]: 472.07 ± 49.40 ml/min/100 g tissue | Regional Blood Flow: Skin [1, 2]: 11.65 ± 1.25 ml/min/100 g tissue | Regional Blood Flow: Small Intestine [1, 2]: 233.60 ± 27.07 ml/min/100 g tissue | Regional Blood Flow: Splenic [1, 2]: 54.77 ± 4.44 ml/min/100 g tissue | Regional Blood Flow: Thymus [1, 2]: 40.70 ± 4.96 ml/min/100 g tissue | Regional Blood Flow: Total Hepatic [1, 2]: 256.67 ± 27.12 ml/min/100 g tissue | +dp/dt [1, 3]: 13656 ± 7786 mm Hg/sec | Cardiac Output [1, 3]: 33.49 ± 2.12 ml/min 100 g body wt | Heart Rate [1, 3]: 394.50 ± 13.13 beat/minute | Mean Arterial Pressure [1, 3]: 97.88 ± 4.19 mm Hg | Oxygen Consumption [1, 3]: 0.93 ± 0.23 ml/min 100 g body wt | Oxygen Delivery [1, 3]: 2.52 ± 0.17 ml/min 100 g body wt | Oxygen Extraction [1, 3]: 34.48 ± 7.45% | Stroke volume [1, 3]: 84.95 ± 4.66 μl/beat/100 g body wt | Total Peripheral Resistance [1, 3]: 3.05 ± 0.31 mm Hg/ml/min/100 g body wt | −dp/dt [1, 3]: 8549 ± 549 mm Hg/sec | protection from ischemia/reperfusion as assessed by LVDP and EDP (isolated rat hearts): significant protection | O-GlcNAc-containing protein pattern vs buffer (O-GlcNAc on proteins): Clear differences
